Measurements from PubChem BioAssay AID328 (DTP/NCI, 2004).
“And” between values parts separate entries of the source, which are not always exact repeats. Identical values can stand only once. Toxic doses and inconclusive results are not listed.

System: BDF1 mice, P388 leukemia ip, median survival T/C
Assay: NCI In Vivo Anticancer Drug Screen. Data for tumor model P388 Leukemia (intraperitoneal) in B6D2F1 (BDF1) mice
Conditions: endpoint: median survival time, higher = longer survival
Method in brief: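 Vehicle-dosed animals serve as the reference; survival of compound-dosed, tumour-implanted mice is divided by it.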

[1] = dose: 100.0 mg/kg/injection, schedule: Q04DX003 (ip), vehicle: saline with Tween-80
[2] = dose: 200.0 mg/kg/injection, schedule: Q04DX003 (ip), vehicle: saline with Tween-80
[3] = dose: 400.0 mg/kg/injection, schedule: Q04DX003 (ip), vehicle: saline with Tween-80
[4] = dose: 100.0 mg/kg/injection, schedule: Q01DX009 (ip), vehicle: saline with Tween-80
[5] = dose: 200.0 mg/kg/injection, schedule: Q01DX009 (ip), vehicle: saline with Tween-80
[6] = dose: 400.0 mg/kg/injection, schedule: Q01DX009 (ip), vehicle: saline with Tween-80
[7] = dose: 75.0 mg/kg/injection, schedule: Q01DX009 (ip), vehicle: saline with Tween-80
[8] = dose: 50.0 mg/kg/injection, schedule: Q04DX003 (ip), vehicle: saline
[9] = dose: 100.0 mg/kg/injection, schedule: Q04DX003 (ip), vehicle: saline
[10] = dose: 25.0 mg/kg/injection, schedule: Q01DX009 (ip), vehicle: saline
[11] = dose: 200.0 mg/kg/injection, schedule: Q01DX009 (ip), vehicle: saline
[12] = dose: 50.0 mg/kg/injection, schedule: Q01DX009 (ip), vehicle: saline with Tween-80
[13] = dose: 25.0 mg/kg/injection, schedule: Q01DX009 (ip), vehicle: saline with Tween-80
[14] = dose: 50.0 mg/kg/injection, schedule: Q04DX003 (ip), vehicle: saline with Tween-80
[15] = dose: 200.0 mg/kg/injection, schedule: Q04DX003 (ip), vehicle: saline

Nc1nc(SCC(=O)c2ccccc2)c2[nH]cnc2n1
T/C (dose: 100.0 mg/kg/injection, schedule: Q01DX009 (ip), vehicle: saline sonified): 115 % of control
T/C [1]: 109 % of control
T/C (dose: 200.0 mg/kg/injection, schedule: Q01DX009 (ip), vehicle: saline sonified): 110 % of control
T/C [2]: 113 % of control
T/C (dose: 400.0 mg/kg/injection, schedule: Q01DX009 (ip), vehicle: saline sonified): 110 % of control
T/C [3]: 118 % of control

CCOC(=O)c1ccc(N)c(C(O)(C(F)(F)F)C(F)(F)F)c1
T/C [4]: 90 % of control
T/C [5]: 100 % of control
T/C [6]: 104 % of control

CCCCCCCCCCCCNC(=O)CCC(=O)O
T/C (dose: 37.5 mg/kg/injection, schedule: Q01DX009 (ip), vehicle: saline with Tween-80): 91 % of control
T/C [7]: 87 % of control

Cc1n[nH]c2ccc([N+](=O)[O-])cc2c1=O
T/C [5]: 87 % of control

COCn1cc(C(N)=O)c(=O)c2c(N)nc(SC)nc21
T/C (dose: 100.0 mg/kg/injection, schedule: Q04DX002 (ip), vehicle: saline with Tween-80): 90 % of control
T/C (dose: 400.0 mg/kg/injection, schedule: Q04DX002 (ip), vehicle: saline with Tween-80): 96 % of control

O=C(/C=C/c1ccccc1)N1CCOCC1
T/C [8]: 95 % of control
T/C [9]: 95 % of control

CC(C)OC(=S)SSc1nc2ccccc2s1
T/C (dose: 9.37 mg/kg/injection, schedule: Q01DX009 (ip), vehicle: saline): 115 % of control
T/C (dose: 18.75 mg/kg/injection, schedule: Q01DX009 (ip), vehicle: saline): 110 % of control
T/C [7]: 112 % of control

CC(C)C[C@H](O)C(=O)O
T/C [10]: 95 % of control
T/C (dose: 44.0 mg/kg/injection, schedule: Q01DX009 (ip), vehicle: saline): 109 % of control
T/C (dose: 66.0 mg/kg/injection, schedule: Q01DX009 (ip), vehicle: saline): 109 % of control
T/C (dose: 100.0 mg/kg/injection, schedule: Q01DX009 (ip), vehicle: saline): 95 % of control and 120 % of control
T/C (dose: 150.0 mg/kg/injection, schedule: Q01DX009 (ip), vehicle: saline): 118 % of control
T/C [11]: 95 % of control

O=C(Nc1ncccn1)C12CC3CC(CC(C3)C1)C2
T/C [12]: 88 % of control
T/C [4]: 96 % of control
T/C [5]: 93 % of control

Nc1nc(=S)c2[nH]c(=S)[nH]c2[nH]1
T/C (dose: 78.0 mg/kg/injection, schedule: Q04DX003 (ip), vehicle: saline with Tween-80): 104 % of control
T/C (dose: 118.0 mg/kg/injection, schedule: Q04DX003 (ip), vehicle: saline with Tween-80): 112 % of control
T/C [3]: 172 % of control
T/C (dose: 600.0 mg/kg/injection, schedule: Q04DX003 (ip), vehicle: saline with Tween-80): 186 % of control

Cc1ccc(NC(=O)Nc2ccccc2F)cc1NC(=O)Nc1ccccc1F
T/C [1]: 104 % of control
T/C [2]: 109 % of control
T/C [3]: 109 % of control

Cc1ccc(S(=O)(=O)NC(c2ccccc2)(c2ccccc2)c2ccccc2)cc1
T/C (dose: 100.0 mg/kg/injection, schedule: Q01DX009 (ip), vehicle: Klucel (hydroxypropylcellulose) (HPC)): 113 % of control
T/C (dose: 200.0 mg/kg/injection, schedule: Q01DX009 (ip), vehicle: Klucel (hydroxypropylcellulose) (HPC)): 109 % of control
T/C (dose: 400.0 mg/kg/injection, schedule: Q01DX009 (ip), vehicle: Klucel (hydroxypropylcellulose) (HPC)): 90 % of control

Clc1ccccc1-c1ncc2cnccn12
T/C (dose: 0.19 mg/kg/injection, schedule: Q01DX009 (ip), vehicle: saline with Tween-80): 102 % of control
T/C (dose: 0.39 mg/kg/injection, schedule: Q01DX009 (ip), vehicle: saline with Tween-80): 102 % of control
T/C (dose: 0.78 mg/kg/injection, schedule: Q01DX009 (ip), vehicle: saline with Tween-80): 106 % of control
T/C (dose: 1.56 mg/kg/injection, schedule: Q01DX009 (ip), vehicle: saline with Tween-80): 102 % of control
T/C (dose: 6.25 mg/kg/injection, schedule: Q01DX009 (ip), vehicle: saline with Tween-80): 99 % of control and 103 % of control
T/C (dose: 12.5 mg/kg/injection, schedule: Q01DX009 (ip), vehicle: saline with Tween-80): 86 % of control
T/C [13]: 88 % of control
T/C (dose: 25.0 mg/kg/injection, schedule: Q04DX003 (ip), vehicle: saline with Tween-80): 115 % of control
T/C [12]: 86 % of control
T/C [14]: 107 % of control
T/C [1]: 88 % of control

CC(=O)Nc1cc(C(=O)O)cc(C(F)(F)F)c1
T/C [1]: 115 % of control
T/C [2]: 105 % of control
T/C [3]: 95 % of control

CCCCOCN1CCCCC1
T/C [14]: 108 % of control
T/C [1]: 120 % of control
T/C [2]: 104 % of control

CC1(C(N)=O)OCCO1
T/C [9]: 100 % of control
T/C [15]: 95 % of control
T/C (dose: 400.0 mg/kg/injection, schedule: Q04DX003 (ip), vehicle: saline): 95 % of control

COC(=O)[C@@]12OC[C@]34[C@H]([C@@H](O)[C@@H]1O)[C@@]1(C)[C@H](O)C(=O)C=C(C)[C@@H]1C[C@H]3OC(=O)C(OC(C)=O)[C@@H]24 (stereo not given in full)
T/C (dose: 15.0 micrograms/kg/injection, schedule: Q01DX009 (ip), vehicle: saline + alcohol): 100 % of control
T/C (dose: 16.0 micrograms/kg/injection, schedule: Q01DX009 (ip), vehicle: saline + alcohol): 100 % of control
T/C (dose: 31.0 micrograms/kg/injection, schedule: Q01DX009 (ip), vehicle: saline + alcohol): 90 % of control and 100 % of control
T/C (dose: 62.0 micrograms/kg/injection, schedule: Q01DX009 (ip), vehicle: saline + alcohol): 90 % of control and 104 % of control
T/C (dose: 125.0 micrograms/kg/injection, schedule: Q01DX009 (ip), vehicle: saline + alcohol): 115 % of control
T/C (dose: 250.0 micrograms/kg/injection, schedule: Q01DX009 (ip), vehicle: saline + alcohol): 110 % of control
T/C (dose: 500.0 micrograms/kg/injection, schedule: Q01DX009 (ip), vehicle: saline + alcohol): 120 % of control

Cc1ccc(S(=O)(=O)N(C)SCl)cc1 (tested in a mixture with another compound)
T/C (dose: 100.0 mg/kg/injection, schedule: Q01DX009 (ip), vehicle: other): 121 % of control

O.O.O=c1[nH]cc(CO)c(=O)[nH]1.[NH2-].[NH2-].[Pt+2]
T/C (dose: 3.12 mg/kg/injection, schedule: Q01DX009 (ip), vehicle: Klucel (hydroxypropylcellulose) (HPC)): 99 % of control
T/C (dose: 6.25 mg/kg/injection, schedule: Q01DX009 (ip), vehicle: Klucel (hydroxypropylcellulose) (HPC)): 88 % of control
T/C (dose: 12.5 mg/kg/injection, schedule: Q01DX009 (ip), vehicle: Klucel (hydroxypropylcellulose) (HPC)): 209 % of control
T/C (dose: 25.0 mg/kg/injection, schedule: Q01DX009 (ip), vehicle: Klucel (hydroxypropylcellulose) (HPC)): 248 % of control and 211 % of control
T/C (dose: 50.0 mg/kg/injection, schedule: Q01DX009 (ip), vehicle: Klucel (hydroxypropylcellulose) (HPC)): 90 % of control

O=C(O)C1CCC(=O)N1C(=O)OCc1ccccc1 (stereo not given)
T/C [4]: 90 % of control
T/C [5]: 90 % of control
T/C [6]: 95 % of control

CC(=O)C(C)=P(c1ccccc1)(c1ccccc1)c1ccccc1
T/C [10]: 102 % of control
T/C (dose: 50.0 mg/kg/injection, schedule: Q01DX009 (ip), vehicle: saline): 120 % of control
T/C [11]: 113 % of control
T/C (dose: 400.0 mg/kg/injection, schedule: Q01DX009 (ip), vehicle: saline): 98 % of control

CCNC(C)(C)C(=O)c1ccco1
T/C [9]: 100 % of control
T/C [15]: 100 % of control

CCC1CCCCN1C (stereo not given)
T/C (dose: 12.5 mg/kg/injection, schedule: Q04DX003 (ip), vehicle: saline): 100 % of control
T/C (dose: 25.0 mg/kg/injection, schedule: Q04DX003 (ip), vehicle: saline): 90 % of control
T/C [8]: 90 % of control

O=C(c1ccccc1)C1CN(C2CCCCC2)C1c1ccccc1 (stereo not given)
T/C [13]: 102 % of control
T/C [12]: 90 % of control
T/C [4]: 102 % of control
T/C [5]: 100 % of control

COc1ccccc1NC(=O)Nc1cccc(Cl)c1
T/C [1]: 95 % of control
T/C [2]: 104 % of control
T/C [3]: 95 % of control
